Data: patent US20130101530A1, “ANTIMICROBIAL PRESERVATIVE COMPOSITIONS FOR PERSONAL CARE PRODUCTS” (GALAXY SURFACTANTS LTD., priority 2011, published 2013)
Values after ≈ are worked out from the molar mass of the structure shown. Read-outs that look alike come from different tables or passages of the source.

How the values were obtained:
Type in all cases: cell-based
[1] = tested on: Bacillus subtilis ATCC 9372; test: microbe, parasite or virus in culture; settings: for MIC: ATCC9372
[2] = tested on: Candida albicans ATCC 10231; test: Minimum inhibitory concentration
[3] = tested on: Propionibacterium acnes MTCC 1951; test: Minimum inhibitory concentration; settings: for MIC: Cutibacterium acnes
[4] = tested on: Malassezia furfur MTCC 1374; test: Minimum inhibitory concentration
[5] = tested on: Aspergillus niger ATCC 16404; test: Minimum inhibitory concentration
[6] = tested on: Pseudomonas aeruginosa Immuno type IV; test: Minimum inhibitory concentration
[7] = tested on: Escherichia coli ATCC 10142; test: Minimum inhibitory concentration
[8] = tested on: Staphylococcus aureus ATCC 6538S; test: Minimum inhibitory concentration; settings: for MIC: ATCC6538S
[9] = tested on: all types of microbes (Gram positive, Gram negative bacteria, yeast and mould; the chosen eight organisms); test: Minimum inhibitory concentration, whole panel
[10] = Bacillus subtilis ATCC 9372, read-out: MINIMUM INHIBITORY CONCENTRATION
[11] = in Preservative Blend No 1 (10:10:80), Bacillus subtilis, read-out: Concentration of individual component at MIC of Preservative Blend No 1

CCCCCCCC(=O)NCC(=O)O [Octanoyl Glycine, N-Octanoyl glycine]
MIC [1, 10]: 3000 µg/mL (≈ 14.9 mM)
MIC [1, 11]: 200 µg/mL
MIC ([2]; ATCC10231, Candida albicans ATCC 10231, read-out: MINIMUM INHIBITORY CONCENTRATION): 4000 µg/mL (≈ 19.9 mM)
MIC ([2]; ATCC10231, in Preservative Blend No 1 (10:10:80), Candida albicans, read-out: Concentration of individual component at MIC of Preservative Blend No 1): 300 µg/mL
MIC ([3]; MTCC1951, Propionibacterium acnes MTCC 1951, read-out: MINIMUM INHIBITORY CONCENTRATION): 3000 µg/mL (≈ 14.9 mM)
MIC ([3]; MTCC1951, in Preservative Blend No 1 (10:10:80), Propionibacterium acnes, read-out: Concentration of individual component at MIC of Preservative Blend No 1): 300 µg/mL
MIC ([4]; MTCC1374, Malassezia furfur MTCC 1374, read-out: MINIMUM INHIBITORY CONCENTRATION): 3000 µg/mL (≈ 14.9 mM)
MIC ([4]; MTCC1374, in Preservative Blend No 1 (10:10:80), Malassezia furfur, read-out: Concentration of individual component at MIC of Preservative Blend No 1): 400 µg/mL
MIC ([5]; ATCC16404; in Preservative Blend No 1 (10:10:80); Aspergillus niger; read-out: Concentration of individual component at MIC of Preservative Blend No 1): 300 µg/mL
MIC ([5]; Aspergillus niger, ATCC16404; read-out: MINIMUM INHIBITORY CONCENTRATION): 4000 µg/mL (≈ 19.9 mM)
MIC ([6]; Pseudomonas aeruginosa Immuno type IV, read-out: MINIMUM INHIBITORY CONCENTRATION): 3000 µg/mL (≈ 14.9 mM)
MIC ([6]; in Preservative Blend No 1 (10:10:80), Pseudomonas aeruginosa, read-out: Concentration of individual component at MIC of Preservative Blend No 1): 200 µg/mL
MIC ([7]; ATCC10142, Escherichia coli ATCC 10142, read-out: MINIMUM INHIBITORY CONCENTRATION): 3000 µg/mL (≈ 14.9 mM)
MIC ([7]; ATCC10142, in Preservative Blend No 1 (10:10:80), Escherichia coli, read-out: Concentration of individual component at MIC of Preservative Blend No 1): 200 µg/mL
MIC ([8]; Staphylococcus aureus ATCC 6538S, read-out: MINIMUM INHIBITORY CONCENTRATION): 3000 µg/mL (≈ 14.9 mM)
MIC ([8]; in Preservative Blend No 1 (10:10:80), Staphylococcus aureus, read-out: Concentration of individual component at MIC of Preservative Blend No 1): 200 µg/mL

OCCOc1ccccc1 [Phenoxy ethanol, 2-Phenoxy ethanol]
MIC [1, 10]: 4000 µg/mL (≈ 29 mM)
MIC [1, 11]: 1600 µg/mL
MIC ([1]; in Preservative Blend No 2 (10:10:80), Bacillus subtilis, read-out: Concentration of individual component at MIC of Preservative Blend No 2): 1600 µg/mL
MIC ([2]; Candida albicans, ATCC10231, read-out: Concentration of individual component at MIC of Preservative Blend No 1): 2400 µg/mL
MIC ([2]; Candida albicans, ATCC10231, read-out: Concentration of individual component at MIC of Preservative Blend No 2): 1600 µg/mL
MIC ([2]; Candida albicans, ATCC10231, read-out: MINIMUM INHIBITORY CONCENTRATION): 6000 µg/mL (≈ 43.4 mM)
Concentration enough to kill the organism in combination with components [A] and [B] ([2]; in Preservative Blend No 1, Candida): around 0.25%
MIC ([3]; MTCC1951, read-out: Concentration of individual component at MIC of Preservative Blend No 1): 2400 µg/mL
MIC ([3]; MTCC1951, read-out: Concentration of individual component at MIC of Preservative Blend No 2): 1600 µg/mL
MIC ([3]; MTCC1951, read-out: MINIMUM INHIBITORY CONCENTRATION): 4000 µg/mL (≈ 29 mM)
MIC ([4]; Malassezia furfur, MTCC1374, read-out: Concentration of individual component at MIC of Preservative Blend No 1): 3200 µg/mL
MIC ([4]; Malassezia furfur, MTCC1374, read-out: Concentration of individual component at MIC of Preservative Blend No 2): 3200 µg/mL
MIC ([4]; Malassezia furfur, MTCC1374, read-out: MINIMUM INHIBITORY CONCENTRATION): 4000 µg/mL (≈ 29 mM)
Activity against yeast and mould ([9]; ingredient alone, Aspergillus and Candida): virtually no activity
Activity against bacteria ([9]; ingredient alone, particularly Gram positive): weak activity
MIC ([5]; Aspergillus niger, ATCC16404, read-out: Concentration of individual component at MIC of Preservative Blend No 1): 2400 µg/mL
MIC ([5]; Aspergillus niger, ATCC16404, read-out: Concentration of individual component at MIC of Preservative Blend No 2): 1600 µg/mL
MIC ([5]; Aspergillus niger, ATCC16404, read-out: MINIMUM INHIBITORY CONCENTRATION): 9000 µg/mL (≈ 65.1 mM)
Concentration enough to kill the organism in combination with components [A] and [B] ([5]; in Preservative Blend No 1; Aspergillus): around 0.25%
MIC ([6]; Pseudomonas aeruginosa, read-out: Concentration of individual component at MIC of Preservative Blend No 1): 1600 µg/mL
MIC ([6]; Pseudomonas aeruginosa, read-out: Concentration of individual component at MIC of Preservative Blend No 2): 2400 µg/mL
MIC ([6]; Pseudomonas aeruginosa, read-out: MINIMUM INHIBITORY CONCENTRATION): 4000 µg/mL (≈ 29 mM)
MIC ([7]; Escherichia coli, ATCC10142, read-out: Concentration of individual component at MIC of Preservative Blend No 1): 1600 µg/mL
MIC ([7]; Escherichia coli, ATCC10142, read-out: Concentration of individual component at MIC of Preservative Blend No 2): 2400 µg/mL
MIC ([7]; Escherichia coli, ATCC10142, read-out: MINIMUM INHIBITORY CONCENTRATION): 6000 µg/mL (≈ 43.4 mM)
MIC ([8]; Staphylococcus aureus, read-out: Concentration of individual component at MIC of Preservative Blend No 1): 1600 µg/mL
MIC ([8]; Staphylococcus aureus, read-out: Concentration of individual component at MIC of Preservative Blend No 2): 2400 µg/mL
MIC ([8]; Staphylococcus aureus, read-out: MINIMUM INHIBITORY CONCENTRATION): 8500 µg/mL (≈ 61.5 mM)

C=CCCCCCCCCC(=O)NCCO [Undecylenoyl MEA amide, N-undecylenoyl monoethanol amide]
MINIMUM INHIBITORY CONCENTRATION ([1]; Bacillus subtilis ATCC 9372): >10000 ppm
Concentration of individual component at MIC of Preservative Blend No 1 ([1]; in Preservative Blend No 1 (10:10:80), Bacillus subtilis): 200 ppm
Concentration of individual component at MIC of Preservative Blend No 2 ([1]; in Preservative Blend No 2 (10:10:80), Bacillus subtilis): 200 ppm
MINIMUM INHIBITORY CONCENTRATION ([2]; Candida albicans ATCC 10231): >10000 ppm
Concentration of individual component at MIC of Preservative Blend No 1 ([2]; in Preservative Blend No 1 (10:10:80), Candida albicans): 300 ppm
Concentration of individual component at MIC of Preservative Blend No 2 ([2]; in Preservative Blend No 2 (10:10:80), Candida albicans): 200 ppm
MINIMUM INHIBITORY CONCENTRATION ([3]; Propionibacterium acnes MTCC 1951): >10000 ppm
Concentration of individual component at MIC of Preservative Blend No 1 ([3]; in Preservative Blend No 1 (10:10:80), Propionibacterium acnes): 300 ppm
Concentration of individual component at MIC of Preservative Blend No 2 ([3]; in Preservative Blend No 2 (10:10:80), Propionibacterium acnes): 200 ppm
MINIMUM INHIBITORY CONCENTRATION ([4]; Malassezia furfur MTCC 1374): >10000 ppm
Concentration of individual component at MIC of Preservative Blend No 1 ([4]; in Preservative Blend No 1 (10:10:80), Malassezia furfur): 400 ppm
Concentration of individual component at MIC of Preservative Blend No 2 ([4]; in Preservative Blend No 2 (10:10:80), Malassezia furfur): 400 ppm
Concentration needed for activity of the ingredient by itself against the broad range of microbes ([9]; ingredient alone, octanoyl glycine tested at neutral pH): > 10000 ppm
Antimicrobial activity of the ingredient alone ([9]; up to 1.0% concentration, bacteria, yeast and mould): does not exhibit any antimicrobial activity
MINIMUM INHIBITORY CONCENTRATION ([5]; Aspergillus niger): >10000 ppm
Concentration of individual component at MIC of Preservative Blend No 1 ([5]; in Preservative Blend No 1 (10:10:80); Aspergillus niger): 300 ppm
Concentration of individual component at MIC of Preservative Blend No 2 ([5]; in Preservative Blend No 2 (10:10:80); Aspergillus niger): 200 ppm
MINIMUM INHIBITORY CONCENTRATION ([6]; Pseudomonas aeruginosa Immuno type IV): >10000 ppm
Concentration of individual component at MIC of Preservative Blend No 1 ([6]; in Preservative Blend No 1 (10:10:80), Pseudomonas aeruginosa): 200 ppm
Concentration of individual component at MIC of Preservative Blend No 2 ([6]; in Preservative Blend No 2 (10:10:80), Pseudomonas aeruginosa): 300 ppm
MINIMUM INHIBITORY CONCENTRATION ([7]; Escherichia coli ATCC 10142): >10000 ppm
Concentration of individual component at MIC of Preservative Blend No 1 ([7]; in Preservative Blend No 1 (10:10:80), Escherichia coli): 200 ppm
Concentration of individual component at MIC of Preservative Blend No 2 ([7]; in Preservative Blend No 2 (10:10:80), Escherichia coli): 300 ppm
MINIMUM INHIBITORY CONCENTRATION ([8]; Staphylococcus aureus ATCC 6538S): >10000 ppm
Concentration of individual component at MIC of Preservative Blend No 1 ([8]; in Preservative Blend No 1 (10:10:80), Staphylococcus aureus): 200 ppm
Concentration of individual component at MIC of Preservative Blend No 2 ([8]; in Preservative Blend No 2 (10:10:80), Staphylococcus aureus): 300 ppm
